Measured values from US20140363438A1, “NEUREGULIN ANTIBODIES AND USES THEREOF” (Genentech, Inc., priority 2011, published 2014).

Columns and labels:
[1] = system: Calu3-shHER3 xenograft tumors; assay: Calu3-shHER3 xenograft; assay type: in vivo, human; settings: Calu3-shHER3, dox 2 gm/L in drinking water
Experimental: To confirm this role in vivo, studies using Calu3-shHER3 and Calu3-shHER4 xenograft models treated with either sucrose or dox were performed. Mice with established Calu3-shHER3 or Calu3-shHer4 xenograft tumors were administered vehicle (sucrose) or dox (2 gm/L) in their drinking water ad libitum (n=14/group).

[2] = system: lung tumors of LSL-K-rasG12D;p53Fl/+ mice; assay: Lung tumor burden by micro-CT in LSL-K-rasG12D;p53Fl/+ mice; assay type: in vivo, mouse; settings: FIG. 3A-B
Experimental: (§1) LSL-K-ras^G12D;p53^F1/+ were infected with Adeno-Cre virus and allowed to age for 16 weeks post-tumor induction. Baseline CT scans were performed at 16 weeks post-tumor induction (day 0 of study) and mice were grouped such that average starting tumor volume per group were equal. Mice were dosed once a week for three weeks with cisplatin (7 mg/kg) or phosphate-buffered saline, and bi-weekly with HER4ECD-Fc (25 mg/kg) or anti-ragweed IgG2A (25 mg/kg) for the duration of the study. Serial CT scans were performed at days 14, 45, and 66.
Two micro-CT systems (vivaCT 40 and vivaCT 75, Scanco Medical, Switzerland) were utilized for longitudinal lung imaging. Animals were randomized between micro-CT systems and rescanned on the same system used for baseline imaging. […] The imaging data were evaluated in the coronal plane using the image analysis software package Analyze (AnalyzeDirect, Inc., Lenexa, Kans., USA). Once the largest cross-sectional plane of each tumor was identified, estimates of maximal tumor diameter (d1) and the largest perpendicular diameter (d2) were determined. The total tumor burden was calculated as the sum of the cross-product of the directional estimates (d1×d2) of all the tumors. […]

[3] = system: Calu3-shNRG1 xenograft tumors; assay: Calu3-shNRG1 xenograft, NRG1 knockdown +/- chemotherapy; assay type: in vivo, human; settings: dox induces NRG1 knockdown, chemotherapy paclitaxel + cisplatin
Experimental: Tumor cells (10-20 million) were transplanted into right flank of athymic nude mice. When tumor size reached ˜200 mm^3, the mice were divided into different treatment groups. Mice were then treated with either vehicle or chemotherapy (paclitaxel, i.v.+cisplatin, i.p.) for the initial studies. The chemotherapy dosing regimen was paclitaxel 20 mg/kg i.v. every other day for 5 doses and cisplatin 5 mg/kg i.p. on days 1 and 7 for the Calu3 model and days 1 and 14 for the H441 model. Regressed tumors and time matched vehicle controls were collected at least 1 week after the last dose of chemo. Tumors were dissociated using dispase/collagenase and samples were FACS sorted to collect the GFP positive tumor cells. For the NRG1 knockdown studies, the treatment groups were: sucrose, doxycycline (dox), chemotherapy+sucrose, and chemotherapy+doxycycline. […]
To determine the efficacy of NRG1-targeting in the Calu3 model, Calu3-shNRG1 tumor bearing mice were assigned to four groups; 1) vehicle+sucrose, 2) vehicle+dox, 3) chemotherapy+sucrose, and 4) chemotherapy+dox. […] Tumor volume was measured twice a week for the duration of the study.
The effect of NRG1 on tumor relapse was assessed by comparing the growth of tumors in the chemotherapy+sucrose with those in the chemotherapy+dox group. […] Therefore, the measured volumes were considerably larger than the actual tumor volume in the dox-treated groups. […]

NRG1/HER3 signaling = assay: HER4-ECD on serum starved LKPH1 and LKPH2 cells, p-HER3 Western blot; assay type: cell-based, mouse
Experimental: To induce shRNA expression, stable cell lines harboring doxcycline-inducible shNRG1 or shLuciferase were grown in 1 ug/ml doxcycline for a total of 6 days. The first day of induction cells were grown in 10% FBS, followed by a titration of FBS over the course of 4 more days. The cells were then completely serum starved during the last 6 hours of growth. Cells were then processed for RNA extraction or western blotting. For HER4ECD studies in mouse lung tumor cell lines, LKPH cells were grown in serum starved conditions for 24 hours prior to addition of HER4ECD at a concentration of 2 mg/ml. LKPH cells were then incubated for another 48 hours prior to processing for Western blotting. Addition of exogenous NRG1 on H441 cells were performed as follows: H441 cells were serum starved for 18 hours prior to addition of 1 uM recombinant human NRG1 beta-1 extracellular domain (R&D systems) or 1 uM anti-ragweed IgG2A as the control. Ten minutes after addition of NRG1 or ragweed, cells were processed for Western blotting.
To test the role of NRG1 signaling in promoting relapse after chemotherapy in the LSL-K-ras^G12D;p53^F1/+ mouse model, a ligand-trap approach to sequester NRG1 and prevent its binding to receptors in vivo was employed. A fusion of the human HER4 extracellular domain (HER4-ECD) fused to murine IgG2A Fc was generated. […]

[4] = system: lung tumors of LSL-K-rasG12D;p53Fl/Fl mice; assay: Lung tumor burden by micro-CT in LSL-K-rasG12D;p53Fl/Fl mice; assay type: in vivo, mouse; settings: FIG. 3C
Experimental: as §1
Two micro-CT systems (vivaCT 40 and vivaCT 75, Scanco Medical, Switzerland) were utilized for longitudinal lung imaging. Animals were randomized between micro-CT systems and rescanned on the same system used for baseline imaging. […] The imaging data were evaluated in the coronal plane using the image analysis software package Analyze (AnalyzeDirect, Inc., Lenexa, Kans., USA). Once the largest cross-sectional plane of each tumor was identified, estimates of maximal tumor diameter (d1) and the largest perpendicular diameter (d2) were determined. The total tumor burden was calculated as the sum of the cross-product of the directional estimates (d1×d2) of all the tumors.
A second study was carried out in LSL-K-ras^G12D;p53^F1/F1 mice as described above. […] Combination activity was assessed using an unpaired t-test against its monotherapy * p<0.05, ** p<0.01.

NRG1β = target: T1, NRG1β (Homo sapiens, UniProt Q02297); assay: Inhibition of 125I-HRG (NRG1β) binding to HER3-ECD-Fc; settings: parental anti-NRG1 antibodies, FIG. 6
T1 sequence (Q02297 177-244 isoform Q02297-6 limits assumed): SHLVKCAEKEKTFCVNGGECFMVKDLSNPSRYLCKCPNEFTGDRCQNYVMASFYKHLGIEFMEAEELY
Experimental: The antibodies were tested for their ability to inhibit NRG1β binding to HER3-Fc. 125I-HRG was generated at Genentech as described previously (Sliwkowski et al JBC 1994). Binding assays were performed in Nunc break-apart strip wells (Thermo-Fisher Scientific, Rochester, N.Y.). Plates were coated at 4° C. overnight with 250 ng/well of HER3-ECD-Fc fusion protein in carbonate buffer (pH 9.6). Plates were rinsed twice with wash buffer (PBS/0.05% Tween 20) and blocked with 100 μL PBS including 1% bovine serum albumin (BSA) for 30 minutes. Increasing concentrations of anti-NRG1 antibodies in RPMI 1640 medium (Invitrogen; Carlsbad, Calif.) with 0.2% BSA were pre-bound to HER3-ECD-Fc. 125I-HRG (specific activity: 266 mCi/mg, 75,000 cpm/well) was added immediately after in a total assay volume of 130 μL. Plates were incubated for 2 hours at room temperature, rinsed twice, and individual wells were counted using a 100 Series Iso Data γ-counter. Samples were assayed in triplicates. Plotting was performed using KaleidaGraph 3.6 software. […]
The affinity matured variants were tested for their ability to block HRGβ binding to HER3-Fc. […] Plates were incubated for 2 hours at room temperature, rinsed twice, and individual wells were counted using a 100 Series Iso Data γ-counter. […]

HRG1a = target: T2, HRG1a (Homo sapiens, UniProt Q02297); assay: Competition assay with 538.24.17 for HRG1a; assay type: binding; settings: FIG. 12
T2 sequence (Q02297 177-241): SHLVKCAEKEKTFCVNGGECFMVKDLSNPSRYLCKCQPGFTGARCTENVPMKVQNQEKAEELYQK
Experimental: (§2) A competition assay was performed to determine the binding specificity of the 526.09 and 526.02 antibodies.

HRG1β = assay: Competition assay with 538.24.17 for HRG1β; assay type: binding; settings: FIG. 12
Experimental: as §2

C[C@H]1c2cccc(O)c2C(=O)C2=C(O)[C@]3(O)C(=O)C(C(N)=O)=C(O)[C@@H](N(C)C)[C@@H]3[C@@H](O)[C@@H]21 [dox, doxycycline]
tumor volume doubling time (TDT) [1]: 19 days

N.N.[Cl][Pt][Cl] [cisplatin]
tumor growth (average tumor burden and tumor growth rate) [2]: not significantly different

C[C@H]1c2cccc(O)c2C(O)=C2C(=O)[C@]3(O)C(O)=C(C(N)=O)C(=O)[C@@H](N(C)C)[C@@H]3[C@@H](O)[C@@H]21 [vehicle+dox]
tumor volume doubling time (TDT) [3]: 44.5 days

HER4-ECD: fusion of the human HER4 extracellular domain to murine IgG2A Fc, ligand trap to sequester NRG1
p-HER3 levels (NRG1/HER3 signaling): diminished | tumor burden by micro-CT on day 28 [4]: no effect

B1: 526.90: parental anti-NRG1 antibody; VH SEQ ID NO: 52, VL SEQ ID NO: 53 (antibody, V domains shown)
VH: EVQLVESGGGLVQPGGSLRLSCAASGFTFSGNAMSWVRQAPGKGLEWVSWIYPSGGNTYYADSVKGRFTISADTSKNTAYLQMNSLRAEDTAVYYCARSYILSYPSITWAFDYWGQGTLVTVSS
VL: DIQMTQSPSSLSASVGDRVTITCRASQSISSYLAWYQQKPGKAPKLLIYGASSRASGVPSRFSGSGSGTDFTLTISSLQPEDFATYYCQQSYSTPITFGQGTKVEIKR
modifications: Heavy chain variable region; Light chain variable region
dose-dependent inhibition of NRGβ binding to HER3-Fc (NRG1β): most potent blockers | competition with 538.24.17 for HRG1a (HRG1a): competes | competition with 538.24.17 for HRG1β (HRG1β): competes
